From patent US20250333410A1, “COMPOUND FOR INHIBITING OR DEGRADING BCL6 AND USE THEREOF IN PHARMACEUTICS” (XIZANG HAISCO PHARMACEUTICAL CO., LTD., priority 2022, published 2025) come the findings set out here.

In this assay the target is Bcl6 (Homo sapiens (Human), UniProt P41182). The assay is described as follows: Bcl-6 protein degradation experiment in Farage cells. The assay is classed as cell-based. Conditions: 24 hours. Here is the method: 2. Bcl-6 Protein Degradation Experiment in Farage Cells
Farage cells purchased from ATCC were placed in an RPMI-1640 complete medium (containing 10% fetal bovine serum, 100 U/mL penicillin and 100 μg/mL streptomycin) and cultured at 37° C. and 5% CO2. The cells in the logarithmic growth phase were collected, and the cell suspension was adjusted to an appropriate density with the culture medium and added to a 6-well cell culture plate at a volume of 1 mL/well. The compounds to be tested were prepared to 2-fold the final concentration, 1 mL of the compounds at different concentrations were added to administration wells, a medium containing 0.2% DMSO was added to control wells, and the plate was incubated at 37° C. for 24 hours. The cells were collected into a 1.5 mL centrifuge tube, 25 μL of RIPA lysis buffer (containing 1× protease inhibitor cocktail) was added, and the cells were lysed on ice for 15 minutes and centrifuged at 12000 rpm/min at 4° C. for 10 minutes. The supernatant was collected and the protein content was determined using the BCA method. The protein sample to be tested was diluted to 0.8 mg/mL, Bcl6 was detected using a fully automated protein expression quantitative analyzer (ProteinSimple), and the internal reference protein was R-actin (both antibodies were from CST). The software (Compass for SW) of the fully automated protein expression quantitative analyzer was used to process the raw data and calculate the peak area and the Bcl6 expression rate relative to the control group. DC50 values were calculated using a four-parameter non-linear fitting model in Graphpad 8.3.0 software.

In general, DC50 refers to the concentration giving 50% degradation. On to `CNC(=O)COc1cc2cc(Nc3nc(N4CCN(c5ccc(C6CCC(=O)NC6=O)cc5)CC4)ncc3Cl)ccc2n(C)c1=O` (stereo not shown) [Trifluoroacetate of compound 20], for which the half-maximal degradation concentration (DC50) is less than 10 nM.

In the case of `[2H]C([2H])([2H])NC(=O)COc1cc2cc(Nc3nc(N4CCN(CC5CCN(c6ccc(C7CCC(=O)NC7=O)cc6)CC5)CC4)ncc3Cl)ccc2n(C)c1=O` (stereo not shown) [Compound 47], the 50% degradation concentration (DC50) is less than 10 nM. Under `CNC(=O)COc1cc2cc(Nc3nc(N4CCN(CC5CN(c6ccc(C7CCC(=O)NC7=O)cc6F)C5)CC4)ncc3Cl)ccc2n(C)c1=O` (stereo not shown) [Trifluoroacetate of compound 40] stands less than 10 nM; under `[2H]C([2H])([2H])NC(=O)COc1cc2cc(Nc3nc(N4CCC(O[C@H]5C[C@H](N6CCN7c8cc(F)c(C9CCC(=O)NC9=O)cc8CC[C@@H]7C6)C5)CC4)ncc3Cl)ccc2n(C)c1=O` (stereo partly shown) [Trifluoroacetate of compound 92], less than 10 nM.

`CNC(=O)COc1cc2cc(Nc3nc(N4CCN(CC5CCN(c6cccc(C7CCC(=O)NC7=O)c6)CC5)CC4)ncc3Cl)ccc2n(C)c1=O` (stereo not shown) [Trifluoroacetate of compound 55] returned a half-maximal degradation concentration (DC50) of less than 10 nM.

Consider `CCn1c(=O)c(OCC(=O)NC)cc2cc(Nc3nc(N4CCN(CC5CCN(c6ccc(C7CCC(=O)NC7=O)cc6)CC5)CC4)ncc3Cl)ccc21` (stereo not shown) [Trifluoroacetate of compound 69], for which the 50% degradation concentration (DC50) is less than 10 nM. To `[2H]C([2H])([2H])NC(=O)COc1cc2cc(Nc3nc(N4CCC(O[C@H]5C[C@H](N6CCN7c8cc(F)c(C9CCC(=O)NC9=O)cc8CC[C@@H]7C6)C5)CC4)ncc3Cl)ccc2n(C(C)C)c1=O` (stereo partly shown) [Trifluoroacetate of compound 93] belongs less than 10 nM. The molecule `CNC(=O)COc1cc2cc(Nc3nc(N4CCC(CN5CCN6c7ccc(C8CCC(=O)NC8=O)cc7CCC6C5)CC4)ncc3Cl)ccc2n(C(C)C)c1=O` (stereo not shown) [Trifluoroacetate of compound 54] had a DC50 of less than 10 nM. To `CCn1c(=O)c(OCC(=O)NC)cc2cc(Nc3nc(N4CCN(CC5CCN(c6ccc(C7CCC(=O)NC7=O)c(F)c6)CC5)CC4)ncc3Cl)ccc21` (stereo not shown) [Trifluoroacetate of compound 68] belongs less than 10 nM; to `CC(=O)COc1cc2cc(Nc3nc(N4CCN(c5ccc(C6CCC(=O)NC6=O)cc5)CC4)ncc3Cl)ccc2n(C)c1=O` (stereo not shown) [Trifluoroacetate of compound 17], less than 10 nM; to `CC(=O)COc1cc2cc(Nc3nc(N4CCN(CC5CCN(c6cc(F)c(C7CCC(=O)NC7=O)c(F)c6)CC5)CC4)ncc3Cl)ccc2n(C)c1=O` (stereo not shown) [Compound 22], less than 10 nM. Under `CNC(=O)COc1cc2cc(Nc3nc(N4CCC(F)(CN5CCN6c7cc(F)c(C8CCC(=O)NC8=O)cc7CC[C@H]6C5)CC4)ncc3Cl)ccc2n(C(C)C)c1=O` (stereo partly shown) [Trifluoroacetate of compound 94] stands less than 10 nM.

Molecule `CNC(=O)COc1cc2cc(Nc3nc(N4CCC(O[C@H]5C[C@H](N6CCN(c7ccc(C8CCC(=O)NC8=O)cc7)CC6)C5)CC4)ncc3Cl)ccc2n(C(C)C)c1=O` (stereo partly shown) [Compound 95] had a DC50 of less than 10 nM. Under `C#CCn1c(=O)c(OCC(=O)NC)cc2cc(Nc3nc(N4CCC(CN5CCN6c7ccc(C8CCC(=O)NC8=O)cc7CCC6C5)CC4)ncc3Cl)ccc21` (stereo not shown) [Compound 50] stands less than 10 nM; under `[2H]C([2H])([2H])NC(=O)COc1cc2cc(Nc3nc(N4CCC(O[C@H]5C[C@H](N6CCN7c8cc(F)c(C9CCC(=O)NC9=O)cc8CC[C@@H]7C6)C5)CC4)ncc3Cl)ccc2n(C([2H])([2H])[2H])c1=O` (stereo partly shown) [Trifluoroacetate of compound 91], less than 10 nM. `CNC(=O)COc1cc2cc(Nc3nc(N4CCN(CC5CCN(Cc6cccc7c6n(C)c(=O)n7C6CCC(=O)NC6=O)CC5)CC4)ncc3Cl)ccc2n(C)c1=O` (stereo not shown) [Compound 12] had a DC50 of less than 10 nM. Under `CNC(=O)COc1cc2cc(Nc3nc(N4CCC(O[C@H]5C[C@H](N6CCN(c7ccc(C8CCC(=O)NC8=O)c(F)c7)CC6)C5)CC4)ncc3Cl)ccc2n(C(C)C)c1=O` (stereo partly shown) [Compound 96] stands less than 10 nM. Under `CNC(=O)COc1cc2cc(Nc3nc(N4CC[C@H](O[C@H]5C[C@H](N6CCN7c8cc(F)c(C9CCC(=O)NC9=O)cc8CC[C@H]7C6)C5)[C@@H](F)C4)ncc3Cl)ccc2n(C(C)C)c1=O` (stereo partly shown) [Trifluoroacetate of compound 109] stands less than 10 nM; under `CNC(=O)COc1cc2cc(Nc3nc(N4CCC(N5CCN(c6ccc(NC7CCC(=O)NC7=O)cc6F)CC5)C(F)(F)C4)ncc3Cl)ccc2n(C)c1=O` (stereo not shown) [Trifluoroacetate of compound 7], less than 10 nM; under `[2H]C([2H])([2H])NC(=O)COc1cc2cc(Nc3nc(N4CCC(O[C@H]5C[C@H](N6CCN7c8cc(F)c(C9CCC(=O)NC9=O)cc8CC[C@H]7C6)C5)CC4)ncc3Cl)ccc2n(C(C)C)c1=O` (stereo partly shown) [Trifluoroacetate of compound 84], less than 10 nM. To `CNC(=O)COc1cc2cc(Nc3nc(N4CCC(CN5CCN6c7ccc(C8CCC(=O)NC8=O)cc7CCC6C5)CC4)ncc3Cl)ccc2n(C2CC2)c1=O` (stereo not shown) [Compound 51] belongs less than 10 nM; to `CC(=O)COc1cc2cc(Nc3nc(N4CCC(N5CCN(c6ccc(NC7CCC(=O)NC7=O)cc6F)CC5)C(F)(F)C4)ncc3Cl)ccc2n(C)c1=O` (stereo not shown) [Trifluoroacetate of compound 5], less than 10 nM; to `CNC(=O)COc1cc2cc(Nc3nc(N4CCC(N(C)C5CCN(c6cccc7c6n(C)c(=O)n7C6CCC(=O)NC6=O)CC5)CC4)ncc3Cl)ccc2n(C)c1=O` (stereo not shown) [Trifluoroacetate of compound 11], less than 10 nM. With `CNC(=O)COc1cc2cc(Nc3nc(N4CCC(O[C@H]5C[C@H](N6CCN7c8cc(F)c(C9CCC(=O)NC9=O)cc8CC[C@@H]7C6)C5)CC4)ncc3Cl)ccc2n(C(C)C)c1=O` (stereo partly shown) [Trifluoroacetate of compound 70], the half-maximal degradation concentration (DC50) is less than 10 nM. Under `[2H]C([2H])([2H])n1c(=O)c(OCC(=O)NC)cc2cc(Nc3nc(N4CCC(O[C@H]5C[C@H](N6CCN7c8cc(F)c(C9CCC(=O)NC9=O)cc8CC[C@@H]7C6)C5)CC4)ncc3Cl)ccc21` (stereo partly shown) [Trifluoroacetate of compound 90] stands less than 10 nM; under `CNC(=O)COc1cc2cc(Nc3nc(N4CCN(CC5CCN(c6ccc(C7CCC(=O)NC7=O)c(F)c6)CC5)CC4)ncc3Cl)ccc2n(C2CC2)c1=O` (stereo not shown) [Trifluoroacetate of compound 53], less than 10 nM; under `CNC(=O)COc1cc2cc(Nc3nc(N4CCC(F)(CN5CCN6c7cc(F)c(C8CCC(=O)NC8=O)cc7CC[C@@H]6C5)CC4)ncc3Cl)ccc2n(C(C)C)c1=O` (stereo partly shown) [Trifluoroacetate of compound 98], less than 10 nM. In the case of `CNC(=O)COc1cc2cc(Nc3nc(N4CCN(CC5CCN(c6ccc(C7CCC(=O)NC7=O)cc6)CC5)CC4)ncc3Cl)ccc2n(C(C)C)c1=O` (stereo not shown) [Trifluoroacetate of compound 42], the 50% degradation concentration (DC50) was less than 10 nM.

In turn, `C#CCn1c(=O)c(OCC(=O)NC)cc2cc(Nc3nc(N4CCN(CC5CCN(c6ccc(C7CCC(=O)NC7=O)c(F)c6)CC5)CC4)ncc3Cl)ccc21` (stereo not shown) [Trifluoroacetate of compound 52] showed a 50% degradation concentration (DC50) of less than 10 nM. On to `[2H]C([2H])([2H])NC(=O)COc1cc2cc(Nc3nc(N4CCC(CN5CCN6c7cc(F)c(C8CCC(=O)NC8=O)cc7CC[C@H]6C5)CC4)ncc3Cl)ccc2n(C(C)C)c1=O` (stereo partly shown) [Trifluoroacetate of compound 85], for which the 50% degradation concentration (DC50) is less than 10 nM. In turn, `CNC(=O)COc1cc2cc(Nc3nc(N4CCN(CC5CCN(c6ccc(C7CCC(=O)NC7=O)cn6)CC5)CC4)ncc3Cl)ccc2n(C)c1=O` (stereo not shown) [Compound 39] yielded a DC50 of less than 10 nM.
